Experiments:
Assay in all cases: relative viability (nuclei count vs DMSO), 5 days (fraction); higher = more cells survive
[1] = compound: OCc1c[nH]c2ccccc12 [Indole-3-carbinol] + C[C@]1(O)C[C@@H](c2nc(-c3ccc4ccc(-c5ccccc5)nc4c3)c3c(N)nccn32)C1 [Linsitinib] (partner 1 µM)
Summary of the method: (§1)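 Each reported value is a median over duplicate plates. It expresses relative viability: treated-well nuclei count divided by vehicle-well nuclei count. Lung cancer cell lines in 1536-well plates were dosed by pin tool a day after seeding, alone with one drug or with a fixed anchor-drug dose plus five library-drug doses (not always all listed) in √10 steps, and nuclei were counted after 5 days.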

[2] = compound: OCc1c[nH]c2ccccc12 [Indole-3-carbinol] + CC(C)C[C@H](NC(=O)[C@H](Cc1ccccc1)NC(=O)c1cnccn1)B(O)O [Bortezomib] (partner 0.002 µM)
Summary of the method: as §1

[3] = compound: OCc1c[nH]c2ccccc12 [Indole-3-carbinol] + Nc1ncn([C@H]2C[C@H](O)[C@@H](CO)O2)c(=O)n1 [Decitabine] (partner 2 µM)
Summary of the method: as §1

[4] = compound: OCc1c[nH]c2ccccc12 [Indole-3-carbinol] + N=C(N)NC(=N)NCCc1ccccc1 [Phenformin] (partner 250 µM)
Summary of the method: as §1

[5] = compound: OCc1c[nH]c2ccccc12 [Indole-3-carbinol] + NC(=O)Nc1cc(-c2cccc(F)c2)sc1C(=O)N[C@H]1CCCNC1 [AZD7762] (partner 0.2 µM)
Summary of the method: as §1

Cell Line | relative viability ([1]; first compound 0.253 µM) | relative viability ([1]; first compound 0.8 µM) | relative viability ([1]; first compound 2.53 µM) | relative viability ([1]; first compound 8 µM) | relative viability ([2]; first compound 0.253 µM) | relative viability ([2]; first compound 0.8 µM) | relative viability ([2]; first compound 2.53 µM) | relative viability ([2]; first compound 8 µM) | relative viability ([3]; first compound 0.253 µM) | relative viability ([3]; first compound 0.8 µM) | relative viability ([3]; first compound 2.53 µM) | relative viability ([3]; first compound 8 µM) | relative viability ([4]; first compound 0.253 µM) | relative viability ([4]; first compound 0.8 µM) | relative viability ([4]; first compound 2.53 µM) | relative viability ([4]; first compound 8 µM) | relative viability ([5]; first compound 0.253 µM) | relative viability ([5]; first compound 0.8 µM) | relative viability ([5]; first compound 2.53 µM) | relative viability ([5]; first compound 8 µM)
LC-2-ad | 0.827 | 0.791 | 0.806 | 0.783 | 1.13 | 1.11 | 0.994 | 0.974 | 0.715 | 0.883 | 0.71 | 0.774 | 0.597 | 0.525 | 0.638 | 0.588 | 0.865 | 0.873 | 0.828 | 0.82
LCLC-97TM1 | 0.163 | 0.159 | 0.178 | 0.174 | 0.651 | 0.686 | 0.778 | 0.447 | 0.259 | 0.249 | 0.199 | 0.223 | 0.477 | 0.435 | 0.425 | 0.443 | 0.39 | 0.297 | 0.236 | 0.234
LCLC-103H | 1.13 | 1.04 | 1.12 | 0.972 | 1.06 | 1.14 | 1.2 | 0.958 | 0.789 | 0.675 | 0.668 | 0.623 | 0.317 | 0.339 | 0.371 | 0.337 | 0.802 | 0.786 | 0.86 | 0.81
LOU-NH91 | 1.01 | 0.899 | 0.937 | 0.943 | 0.497 | 0.459 | 0.566 | 0.522 | 0.827 | 0.781 | 0.818 | 0.831 | 0.783 | 0.708 | 0.725 | 0.699 | 0.791 | 0.703 | 0.77 | 0.755
LU99A | 0.501 | 0.556 | 0.428 | 0.536 | 1.31 | 1.11 | 1.06 | 1.02 | 0.833 | 0.862 | 0.944 | 0.938 | 0.943 | 0.869 | 0.816 | 0.871 | 0.379 | 0.392 | 0.434 | 0.329
LXF-289 | 0.977 | 1.03 | 0.996 | 0.892 | 1.03 | 1.1 | 0.944 | 0.893 | 0.383 | 0.324 | 0.362 | 0.369 | 0.527 | 0.553 | 0.488 | 0.513 | 1.25 | 1.1 | 1.13 | 1.03
NCI-H23 | 0.668 | 0.649 | 0.722 | 0.485 | 0.898 | 1.16 | 0.846 | 0.975 | 0.335 | 0.314 | 0.316 | 0.291 | 0.773 | 0.815 | 0.831 | 0.77 | 0.315 | 0.263 | 0.256 | 0.294
NCI-H322M | 0.9 | 0.899 | 0.974 | 0.839 | 1.18 | 1.25 | 1.3 | 1.07 | 0.725 | 0.659 | 0.722 | 0.675 | 0.685 | 0.764 | 0.746 | 0.761 | 0.607 | 0.596 | 0.514 | 0.613
NCI-H441 | 0.582 | 0.688 | 0.576 | 0.441 | 0.367 | 0.938 | 0.381 | 0.375 | 0.241 | 0.245 | 0.283 | 0.234 | 0.883 | 1.01 | 0.955 | 0.797 | 1.34 | 1.23 | 1.27 | 1.15
NCI-H460 | 0.773 | 0.875 | 0.713 | 0.689 | 1.14 | 1.14 | 1.11 | 1.03 | 0.564 | 0.44 | 0.518 | 0.473 | 0.535 | 0.482 | 0.53 | 0.498 | 0.652 | 0.602 | 0.679 | 0.645
NCI-H596 | 1.02 | 1.08 | 1.07 | 0.954 | 0.996 | 0.773 | 0.987 | 1.01 | 1.04 | 0.971 | 1.06 | 0.959 | 0.633 | 0.735 | 0.77 | 0.723 | 1.06 | 1.07 | 1.11 | 1.06
NCI-H647 | 1.08 | 1.44 | 1.13 | 1.04 | 1.15 | 0.718 | 1.04 | 0.883 | 0.417 | 0.438 | 0.455 | 0.354 | 0.637 |  | 0.569 | 0.446 | 0.604 | 0.293 | 0.463 | 0.551
NCI-H650 | 0.948 | 0.773 | 0.909 | 0.712 | 0.955 | 0.748 | 0.83 | 0.746 | 0.354 | 0.323 | 0.344 | 0.338 | 0.47 | 0.491 | 0.484 | 0.416 | 1.01 | 1.21 | 0.967 | 1.04
NCI-H727 | 0.178 | 0.31 | 0.268 | 0.283 | 0.872 | 0.842 | 0.897 | 0.828 | 0.997 | 0.782 | 0.884 | 0.825 | 0.532 | 0.502 | 0.458 | 0.673 | 0.664 | 0.834 | 0.579 | 0.551
NCI-H838 | 1.09 | 0.975 | 1.02 | 0.951 | 0.842 | 0.789 | 0.856 | 0.913 | 0.486 | 0.498 | 0.518 | 0.434 | 0.607 | 0.526 | 0.735 | 0.553 | 1.05 | 0.84 | 0.975 | 0.883
NCI-H1355 | 0.774 | 0.802 | 0.764 | 0.715 | 1.25 | 1.18 | 1.2 | 1.17 | 0.342 | 0.359 | 0.379 | 0.371 | 0.48 | 0.455 | 0.435 | 0.462 | 0.859 | 0.806 | 0.799 | 0.778
NCI-H1437 | 0.986 | 1.16 | 1.04 | 0.894 | 0.503 | 0.532 | 0.498 | 0.466 | 0.591 | 0.599 | 0.599 | 0.591 | 0.308 | 0.323 | 0.29 | 0.448 | 1.21 | 1.22 | 1.15 | 1.09
NCI-H1651 | 0.873 | 1.11 | 1.06 | 0.895 | 0.917 | 0.938 | 0.98 | 0.874 | 0.653 | 0.566 | 0.596 | 0.622 | 0.287 | 0.349 | 0.315 | 0.424 | 0.448 | 0.441 | 0.438 | 0.437
NCI-H1666 | 0.81 | 0.867 | 0.84 | 0.808 | 0.892 | 0.873 | 0.865 | 0.786 | 0.809 | 0.673 | 0.696 | 0.661 | 0.592 | 0.515 | 0.582 | 0.558 | 0.914 | 0.743 | 0.827 | 0.739
NCI-H1734 | 0.947 | 0.872 | 0.835 | 0.813 | 0.974 | 1.11 | 0.966 | 0.893 | 0.51 | 0.456 | 0.477 | 0.46 | 0.406 | 0.394 | 0.34 | 0.333 | 0.519 | 0.601 | 0.551 | 0.512
NCI-H1755 | 1.03 | 1.05 | 0.95 | 0.959 | 1.02 | 0.939 | 0.976 | 0.995 | 0.737 | 0.686 | 0.725 | 0.638 | 0.645 | 0.594 | 0.636 | 0.625 | 0.463 | 0.42 | 0.5 | 0.42
NCI-H1792 | 0.499 | 0.37 | 0.506 | 0.47 | 0.965 | 0.89 | 1.03 | 0.934 | 0.569 | 0.603 | 0.506 | 0.489 | 0.191 | 0.26 |  | 0.194 | 0.734 | 0.786 | 0.901 | 0.77
NCI-H1915 | 1.09 | 1.1 | 1.1 | 1.11 | 0.968 | 0.881 | 0.973 | 0.977 | 0.255 | 0.246 | 0.275 | 0.27 | 0.383 | 0.365 | 0.368 | 0.354 | 0.655 | 0.625 | 0.767 | 0.737
NCI-H1975 | 0.812 | 1.05 | 0.964 | 0.954 | 0.409 | 0.328 | 0.436 | 0.365 | 0.392 | 0.38 | 0.415 | 0.436 | 0.391 | 0.413 | 0.419 | 0.417 | 0.624 | 0.79 | 0.764 | 0.613
NCI-H1993 | 0.692 | 0.793 | 0.815 | 0.667 | 1.09 | 1.38 | 1.14 | 1.17 | 0.641 | 0.657 | 0.573 | 0.623 | 0.516 | 0.523 | 0.516 | 0.549 | 0.827 | 0.876 | 0.691 | 0.843
NCI-H2085 | 0.828 | 0.897 | 0.982 | 0.779 | 1.07 | 1.15 | 1.14 | 0.967 | 0.5 | 0.63 | 0.483 | 0.506 | 0.684 | 0.85 | 0.787 | 0.624 | 0.965 | 1.01 | 1.05 | 0.893

— the supplement of paper PMC10307832
